The test system of one data set is BAT. Description: In vivo radiolabeled organ distribution studies (oleate, glucose, triolein). The following applies: mice. As for the experimental part: For in vivo fatty acid organ distribution studies, an oleate/^3H-oleate tracer mix was complexed to fatty acid-free BSA (Schlein, et al., Cell Metab. 23, 441-453 (2016)) and injected into the tail vein of wild type C57BL/6J mice 15 minutes after treatment with either vehicle, 1 μg/kg body weight 12,13-diHOME in 0.1% BSA PBS or NE. Similarly, radiolabeled organ distribution studies were performed in mice either by injection into the tail vein with 2-desoxy-D-[^14C]-glucose (PerkinElmer, 0.025 mCi per kg) in PBS or orally gavaged with 10 mL/kg olive oil (Sigma) containing [9,10-^3H(N)]-triolein (PerkinElmer, 0.3 mCi/kg). In all assays, organs were harvested after 15 minutes under terminal anesthesia and systemic perfusion with PBS-heparin (10 U/ml) via the left heart ventricle. Tissues were homogenized by using Solvable (PerkinElmer) and disintegrations per minute per organ data were calculated by scintillation counting.

A short description of data set [1]: Oral lipid tolerance test. The class given is in vivo. To be noted: mice given an oral bolus of triglyceride, serum triglyceride.
Data set [2] is described as follows: Blood pressure and pulse by the tail cuff method. The format is in vivo. To be noted: mice, acute pretreatment. As for the experimental part:
For cold tolerance assay, mice were injected retro-orbitally with 1 μg/kg body weight 12,13-diHOME (purchased from Cayman Chemical Company) in 0.1% w/v BSA in PBS or vehicle, then immediately placed in a cold room maintained at 4° C. and body core temperature was determined by rectal probe measurements. Mice injected retro-orbitally were also used to measure blood pressure and pulse with the tail cuff method (Hatteras Instruments).

A short description of data set [3]: CLAMS study in cold conditions (4° C.). The class given is in vivo. To be noted: mice, 1 μg/kg intravenously, 1 h at cold (4° C.). As for the experimental part: For CLAMS studies, mice were injected intravenously with 1 μg/kg body weight 12,13-diHOME in 0.1% BSA PBS or vehicle and then monitored using the CLAMS system in cold conditions (4° C.) for 1 hour. Respiratory exchange ratio (R.E.R.) was calculated as the ratio of total carbon dioxide produced to total oxygen consumed.

Another data set deals with mature brown adipocytes. As to the kind of experiment: In vitro fatty acid uptake (FFA-SS-Luc) in brown adipocytes constitutively expressing luciferase. The format is cell-based, mice. To be noted: 1 μM for 15 minutes, 10 μM FFA-SS-Luc. Here is the method:
Stromal vascular cells were isolated from interscapular brown adipose tissue dissected from TgLuc mice (Stock no. 008450) obtained from The Jackson Laboratory. Cells were immortalized and differentiated into adipocytes in vitro according to the WT-1 protocol (Tseng, Y. H. et al., Mol. Cell Biol. 24, 1918-1929 (2004)). After 1 hour of serum starvation, mature adipocytes were treated with 1 μM 12,13-diHOME or methyl acetate vehicle in 0.1% w/v BSA in PBS for 15 minutes. After this treatment, cells were incubated with 10 μm FFA-SS-Luc (Intrace Medical) and imaged using the IVIS Spectrum CT using sequential 30 s exposures for 1 hour. Data was analyzed using Living Image Software and movies were assembled from individual images using ImageJ. All cultures were confirmed to be Mycoplasma free.

A further data set relates to WT-1 brown adipocytes. As to the kind of experiment: Seahorse Bioanalyzer oxygen consumption. The class given is cell-based. As for the experimental part:
WT-1 brown preadipocytes were seeded onto gelatin coated Seahorse Plates and differentiated according to standard protocols. Cells were starved for 1 h, then treated for 15 min with 1 μM 12,13-diHOME or methyl acetate vehicle. The oxygen consumption rates (OCR) were monitored in 200 μM palmitic acid plus 100 μM albumin in a Seahorse XF24 instrument using the standard protocol of 3 min mix, 2 min wait, and 3 min measure. For the normalization of respiration to protein content, cells were lysed in RIPA buffer and protein concentration was measured using the Pierce BCA kit (Life Technologies).

Regarding `CCCCCC(O)C(O)C/C=C\CCCCCCCC(=O)O` (centres unmarked) [12,13-diHOME, 12,13-dihydroxy-9Z-octadecenoic acid], the “FA uptake into BAT” value in the data set on BAT (1 μg/kg, radiolabeled oleate, similar level achieved by NE) was “significant increase”. In addition, the “glucose uptake into BAT” value with BAT (radiolabeled glucose, similar level achieved by NE) was “significant increase”. In addition, in the data set on BAT (triglyceride delivered by oral gavage), the “BAT specific uptake of radiolabeled triglyceride” value is on record as “enhanced”. Moreover, in data set [1], the oral lipid tolerance result was “improved”. Besides, in data set [2], the blood pressure entry was “no effect”, the diastolic pressure entry is on record as “very transient increase” and the pulse result was “no effect”. For the same compound, in data set [3], the carbon dioxide production result is reported as “significant increases”, the oxygen consumption result is given as “significant increases” and the respiratory exchange ratio result was “decrease”. In the data set on mature brown adipocytes, the “FFA-SS-Luc uptake in vitro” value is recorded as “significantly increased”. Also, the basal respiration entry in the data set on WT-1 brown adipocytes (1 μM for 15 min) was “significantly increased”. For the same compound, in the data set on WT-1 brown adipocytes (data not shown), the maximal respiratory capacity result was “no effect” and the uncoupling entry was “no effect”.
